For 21 compounds, T/C results are on record in PubChem BioAssay AID256 (DTP/NCI, 2004).

Structures are written as SMILES. Values joined by “and” are separate entries in the source; they are usually repeats but may differ in a detail not shown here. Equal values may be shown once. Toxic doses and inconclusive results are not listed.

In this assay the test system is CD2F1 mice, L1210 leukemia ip, survival T/C. Kind of assay: NCI In Vivo Anticancer Drug Screen. Data for tumor model L1210 Leukemia (intraperitoneal) in CD2F1 (CDF1) mice. Conditions: higher = longer survival. An outline of the steps: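 Mice carrying a transplanted tumor received test compound or vehicle alone. The value is the measurement in the treated group divided by that in the vehicle-treated control group.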

Setting [1] is: endpoint: mean survival time, dose: 100.0 mg/kg/injection, schedule: Q01DX001 (ip), vehicle: saline with Tween-80.
The mark [2] stands for this setting: endpoint: mean survival time, dose: 200.0 mg/kg/injection, schedule: Q01DX001 (ip), vehicle: saline with Tween-80.
Setting [3] is: endpoint: mean survival time, dose: 400.0 mg/kg/injection, schedule: Q01DX001 (ip), vehicle: saline with Tween-80.
Where [4] appears, read: endpoint: mean survival time, dose: 100.0 mg/kg/injection, schedule: Q04DX003 (ip), vehicle: saline with Tween-80.
The mark [5] stands for this setting: endpoint: mean survival time, dose: 200.0 mg/kg/injection, schedule: Q04DX003 (ip), vehicle: saline with Tween-80.
[6] abbreviates: endpoint: mean survival time, dose: 400.0 mg/kg/injection, schedule: Q04DX003 (ip), vehicle: saline with Tween-80.
Setting [7] is: endpoint: mean survival time, dose: 6.25 mg/kg/injection, schedule: Q01DX009 (ip), vehicle: saline with Tween-80.
Where [8] appears, read: endpoint: mean survival time, dose: 12.5 mg/kg/injection, schedule: Q01DX009 (ip), vehicle: saline with Tween-80.
The mark [9] stands for this setting: endpoint: mean survival time, dose: 100.0 mg/kg/injection, schedule: Q01DX009 (ip), vehicle: saline with Tween-80.
Setting [10] is: endpoint: mean survival time, dose: 200.0 mg/kg/injection, schedule: Q01DX009 (ip), vehicle: saline with Tween-80.
Setting [11] is: endpoint: mean survival time, dose: 400.0 mg/kg/injection, schedule: Q01DX009 (ip), vehicle: saline with Tween-80.
Setting [12] is: endpoint: mean survival time, dose: 75.0 mg/kg/injection, schedule: Q01DX001 (ip), vehicle: saline.
Where [13] appears, read: endpoint: mean survival time, dose: 150.0 mg/kg/injection, schedule: Q01DX001 (ip), vehicle: saline.
Where [14] appears, read: endpoint: mean survival time, dose: 300.0 mg/kg/injection, schedule: Q01DX001 (ip), vehicle: saline.

Take `N#C/C(=C/c1ccc(Cl)cc1)C(N)=O`: the T/C (endpoint: mean survival time, dose: 12.5 mg/kg/injection, schedule: Q04DX003 (ip), vehicle: Klucel (hydroxypropylcellulose) (HPC)) is 96 % of control and 98 % of control; the T/C (endpoint: mean survival time, dose: 25.0 mg/kg/injection, schedule: Q04DX003 (ip), vehicle: Klucel (hydroxypropylcellulose) (HPC)) is 93 % of control and 95 % of control; the T/C (endpoint: mean survival time, dose: 50.0 mg/kg/injection, schedule: Q04DX003 (ip), vehicle: Klucel (hydroxypropylcellulose) (HPC)) is 100 % of control and 104 % of control; the T/C under setting [1] is 121 % of control; the T/C (endpoint: mean survival time, dose: 100.0 mg/kg/injection, schedule: Q04DX003 (ip), vehicle: Klucel (hydroxypropylcellulose) (HPC)) was 100 % of control and 101 % of control; the T/C under setting [2] was 111 % of control. Under setting [3], the T/C was 101 % of control.

Consider `C=CCOP(=O)(OCC=C)C(Cl)(Cl)Cl`, for which the T/C reads like this: (endpoint: mean survival time, dose: 75.0 mg/kg/injection, schedule: Q01DX001 (ip), vehicle: other) 109 % of control; (endpoint: mean survival time, dose: 150.0 mg/kg/injection, schedule: Q01DX001 (ip), vehicle: other) 97 % of control; (endpoint: mean survival time, dose: 300.0 mg/kg/injection, schedule: Q01DX001 (ip), vehicle: other) 109 % of control.

In the case of `COC1(c2ccccc2)C(c2ccccc2)=CC(=O)/C1=C\c1ccccc1` (centres undefined), the T/C by setting is: under setting [4], 98 % of control; under setting [5], 91 % of control; under setting [6], 86 % of control.

Regarding `CC1(c2ccc(Cl)cc2)OC(=O)C(=Cc2ccc([N+](=O)[O-])s2)C(=O)O1` (centres undefined), the T/C is 101 % of control under setting [7]; 98 % of control and 101 % of control under setting [8]; 96 % of control and 100 % of control (endpoint: mean survival time, dose: 25.0 mg/kg/injection, schedule: Q01DX009 (ip), vehicle: saline with Tween-80); 100 % of control and 101 % of control (endpoint: mean survival time, dose: 50.0 mg/kg/injection, schedule: Q01DX009 (ip), vehicle: saline with Tween-80); 102 % of control and 112 % of control under setting [9]; 97 % of control under setting [10].

Take `O=S(=O)(O)c1ccc(O)cc1`: the T/C is, setting by setting: (endpoint: mean survival time, dose: 100.0 mg/kg/injection, schedule: Q01DX001 (ip), vehicle: saline) 103 % of control; (endpoint: mean survival time, dose: 200.0 mg/kg/injection, schedule: Q01DX001 (ip), vehicle: saline) 108 % of control; (endpoint: mean survival time, dose: 400.0 mg/kg/injection, schedule: Q01DX001 (ip), vehicle: saline) 100 % of control.

Regarding `NC(N)=NCCc1ccccc1`, the T/C (endpoint: mean survival time, dose: 5.0 mg/kg/injection, schedule: Q01DX009 (ip), vehicle: saline) is 102 % of control; the T/C (endpoint: mean survival time, dose: 5.0 mg/kg/injection, schedule: Q04DX003 (ip), vehicle: saline) is 92 % of control; the T/C (endpoint: mean survival time, dose: 10.0 mg/kg/injection, schedule: Q01DX009 (ip), vehicle: saline) was 103 % of control; the T/C (endpoint: mean survival time, dose: 10.0 mg/kg/injection, schedule: Q04DX003 (ip), vehicle: saline) is 102 % of control; the T/C (endpoint: mean survival time, dose: 20.0 mg/kg/injection, schedule: Q01DX009 (ip), vehicle: saline) is 96 % of control; the T/C (endpoint: mean survival time, dose: 20.0 mg/kg/injection, schedule: Q04DX003 (ip), vehicle: saline) was 97 % of control.

Regarding `CC1OC(c2ccccc2)OC1C` (centres undefined), the T/C was 94 % of control under setting [4], 92 % of control under setting [5] and 90 % of control under setting [6].

With `CO[Si](c1ccccc1)(c1ccccc1)c1cccc2ccccc12`, the T/C (endpoint: mean survival time, dose: 75.0 mg/kg/injection, schedule: Q04DX003 (ip), vehicle: saline) was 89 % of control; the T/C (endpoint: mean survival time, dose: 150.0 mg/kg/injection, schedule: Q04DX003 (ip), vehicle: saline) was 91 % of control; the T/C (endpoint: mean survival time, dose: 300.0 mg/kg/injection, schedule: Q04DX003 (ip), vehicle: saline) is 95 % of control.

With `COC(=O)c1ccc(C)cc1C(=O)OC`, the T/C by setting is: under setting [4], 97 % of control; under setting [5], 92 % of control.

In the case of `C=CCSc1ncnc2c1cnn2C1OC(CO)C(O)C1O` (centres undefined), the T/C (endpoint: mean survival time, dose: 12.5 mg/kg/injection, schedule: Q01DX005 (ip), vehicle: water) was 102 % of control; the T/C (endpoint: mean survival time, dose: 25.0 mg/kg/injection, schedule: Q01DX005 (ip), vehicle: water) is 98 % of control; the T/C (endpoint: mean survival time, dose: 50.0 mg/kg/injection, schedule: Q01DX005 (ip), vehicle: water) was 98 % of control; the T/C (endpoint: mean survival time, dose: 100.0 mg/kg/injection, schedule: Q01DX005 (ip), vehicle: water) is 102 % of control.

Consider `CC1(C)C2CCC(I)(C2)C1O` (centres undefined), for which the T/C reads like this: (endpoint: mean survival time, dose: 50.0 mg/kg/injection, schedule: Q04DX003 (ip), vehicle: saline with Tween-80) 101 % of control; under setting [4], 101 % of control; under setting [5], 101 % of control.

Turning to `Cc1cc(NCCN(C(C)C)C(C)C)nc(Nc2nc3ccc(Cl)cc3[nH]2)n1`, the T/C (endpoint: mean survival time, dose: 0.75 mg/kg/injection, schedule: Q01DX009 (ip), vehicle: saline with Tween-80) was 103 % of control; the T/C (endpoint: mean survival time, dose: 1.5 mg/kg/injection, schedule: Q01DX009 (ip), vehicle: saline with Tween-80) was 90 % of control; the T/C (endpoint: mean survival time, dose: 3.0 mg/kg/injection, schedule: Q01DX009 (ip), vehicle: saline with Tween-80) is 106 % of control; the T/C under setting [7] is 92 % of control; the T/C under setting [8] is 92 % of control; the T/C under setting [1] was 96 % of control. In addition, the T/C under setting [2] is 96 % of control and the T/C under setting [3] was 98 % of control.

Consider `CC(CCCC1SCC2NC(=O)NC21)C(=O)O` (centres undefined), for which the T/C is, setting by setting: under setting [4], 98 % of control; under setting [5], 98 % of control; under setting [6], 98 % of control.

As to `OCCC1=CCCCC1`, the T/C was 91 % of control under setting [9], 97 % of control under setting [10] and 98 % of control under setting [11].

As to `CCOC(=O)C(OC(=O)CC)c1ccccc1` (centres undefined), the T/C was 96 % of control under setting [9], 100 % of control under setting [10] and 102 % of control under setting [11].

Regarding `CCOc1ccccc1N1C(=O)CSC1=S`, the T/C (endpoint: mean survival time, dose: 25.0 mg/kg/injection, schedule: Q04DX002 (ip), vehicle: other) was 93 % of control; the T/C (endpoint: mean survival time, dose: 50.0 mg/kg/injection, schedule: Q04DX002 (ip), vehicle: other) is 93 % of control; the T/C (endpoint: mean survival time, dose: 100.0 mg/kg/injection, schedule: Q04DX002 (ip), vehicle: other) is 89 % of control; the T/C (endpoint: mean survival time, dose: 200.0 mg/kg/injection, schedule: Q04DX002 (ip), vehicle: other) is 101 % of control.

Take `Cc1[nH]c2cc([N+](=O)[O-])ccc2c1[N+](=O)[O-]`: the T/C was 97 % of control and 108 % of control under setting [12]; 103 % of control and 100 % of control under setting [13]; 93 % of control under setting [14].

As for `CCC(C)(C)C1=C(N=[N+]=[N-])C(=O)C(C(C)(C)CC)=C(N=[N+]=[N-])C1=O`, the T/C by setting is: (endpoint: mean survival time, dose: 100.0 mg/kg/injection, schedule: Q01DX001 (ip), vehicle: other) 100 % of control; (endpoint: mean survival time, dose: 200.0 mg/kg/injection, schedule: Q01DX001 (ip), vehicle: other) 96 % of control; (endpoint: mean survival time, dose: 400.0 mg/kg/injection, schedule: Q01DX001 (ip), vehicle: other) 103 % of control.

On to `Cc1ncc2c(n1)NC(c1ccc(Cl)cc1Cl)NC2` (centres undefined), for which the T/C under setting [12] is 101 % of control, the T/C under setting [13] is 105 % of control and the T/C under setting [14] was 101 % of control.

As for `C/C=C(\C)C(=O)OC1C(C)C2(O)C(C=C(CO)CC3(O)C(=O)C(C)=CC32)C2C(C)(C)C12OC(=O)CCCCCCCCC` (centres undefined), the T/C was 90 % of control (endpoint: mean survival time, dose: 125.0 micrograms/kg/injection, schedule: Q01DX009 (ip), vehicle: saline + alcohol) and 95 % of control (endpoint: mean survival time, dose: 250.0 micrograms/kg/injection, schedule: Q01DX009 (ip), vehicle: saline + alcohol).

As for `C/C=C/C=C\C=C/C(O)CC(OP(=O)(O)O)C(C)(O)/C=C/C1CC=CC(=O)O1` (centres undefined), the T/C runs as follows: (endpoint: median survival time, dose: 0.38 mg/kg/injection, schedule: Q01DX009 (ip), vehicle: water) 116 % of control; (endpoint: median survival time, dose: 1.5 mg/kg/injection, schedule: Q01DX009 (ip), vehicle: water) 180 % of control; (endpoint: median survival time, dose: 3.0 mg/kg/injection, schedule: Q01DX009 (ip), vehicle: water) 153 % of control and 168 % of control; (endpoint: median survival time, dose: 6.0 mg/kg/injection, schedule: Q01DX009 (ip), vehicle: water) 120 % of control and 226 % of control.
